Target: T1, PsnB (Plesiocystis pacifica, UniProt A6G4D7)
T1 sequence (A6G4D7 1-314): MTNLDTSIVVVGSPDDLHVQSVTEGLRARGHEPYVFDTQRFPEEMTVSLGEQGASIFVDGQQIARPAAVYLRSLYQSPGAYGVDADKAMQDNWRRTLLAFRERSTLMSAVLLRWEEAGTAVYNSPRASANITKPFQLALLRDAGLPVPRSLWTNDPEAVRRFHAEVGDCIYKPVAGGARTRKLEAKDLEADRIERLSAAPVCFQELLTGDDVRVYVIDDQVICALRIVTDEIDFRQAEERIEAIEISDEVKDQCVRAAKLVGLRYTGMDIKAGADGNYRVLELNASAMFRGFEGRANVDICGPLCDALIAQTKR
T1 sequence (A6GH40 14-38 partner): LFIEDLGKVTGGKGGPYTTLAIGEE
Test: X-ray crystal structure of the complex
Assay type: binding
Details: complex with minimal precursor PsnA2_14-38 and Mg; nucleotide 5 mM; ATP site

Structure (SMILES) | X-ray crystal structure of the complex
Nc1ncnc2c1ncn2[C@@H]1O[C@H](COP(=O)(O)OP(=O)(O)NP(=O)(O)O)[C@@H](O)[C@H]1O [AMPPNP] | PsnB-MP-AMPPNP (7DRN)
Nc1ncnc2c1ncn2[C@@H]1O[C@H](COP(=O)(O)OP(=O)(O)O)[C@@H](O)[C@H]1O [ADP] | For PsnB-MP-ADP (7DRM)
